In brackets after ≈: the same amount, converted by molar mass.
Assays:
Aphidius rhopalosiphi = conditions: not reported; mortality
Oryctolagus sp. = conditions: reproduction developmental; mortality
Bird = conditions: acute; oral; unspecified; mortality
Typhlodromus pyri = conditions: not reported; mortality
Apis mellifera = conditions: acute, duration: 48 hours, mortality
[1] = chronic/long-term, duration: 21 days

What does the source list for `COC(=O)c1ccccc1S(=O)(=O)NC(=O)N(C)c1nc(C)nc(OC)n1` [Tribenuron-methyl]?
LC50 (Oncorhynchus mykiss; acute, duration: 96 hours, mortality): 738 µg/mL (≈ 1870 µM); NOEC (Oncorhynchus mykiss; [1]): 560 mg/L; NOAEL (Anas platyrhynchos; reproductive): 21 mg/kg-day; LC50 (Anas platyrhynchos; short-term, oral, feed, mortality): > 974 mg/kg-day; LEL (Aphidius rhopalosiphi): 30 g/ha; NOAEL (Oryctolagus sp.): 20 mg/kg-day; LD50 (Rattus norvegicus; acute, oral, mortality): > 5000 mg/kg; NOAEL (Rattus norvegicus; chronic, duration: 2 years, body weight): 1 mg/kg-day; NOAEL (Rattus norvegicus; reproduction developmental, reproduction): 19 mg/kg-day; NOAEL (Rattus norvegicus; subchronic, duration: 90 days, oral, body weight): 7 mg/kg-day; LD50 (Bird): > 2250 mg/kg; LEL (Typhlodromus pyri): 30 g/ha; LD50 (Apis mellifera; dermal): > 98.4 µg/piece; LD50 (Apis mellifera; oral, unspecified): > 9.1 µg/piece; LC50 (Daphnia magna; acute, duration: 48 hours, mortality): > 894 µg/mL; NOEC (Daphnia magna; [1]): 120 mg/L

Source: EPA's ToxValDB 9.5 (doi:10.2903/j.efsa.2005.15r)
